Laboratory results taken from patent EP0565593B1, “REDUCING PESTICIDAL INTERACTIONS IN CROPS” (priority 1990, dated 1992).
Where “and” joins values, the source holds several entries; their conditions need not be identical. Equal entries are not always repeated. Where two headings read alike, the source gives them in different places.

Key:
Corn [1] = assay: Field trials, PPI, PRE and POE herbicide applications with terbufos (Example 7); assay type: in vivo; details: mean of five locations, soil-applied insecticide prior to planting
Text: This example summarizes the results of one series of field trials from a plurality of locations and soil types wherein test chemicals were applied in various modes including pre-plant incorporated (PPI), post emergence (POE) and preemergence (PRE) with and without a safener (antidote). Test Chemicals were Herbicide Nos 1, 2, 3 and 7-9; Insecticide No. 1 and Antidote No. 1.
In these trials Insecticide No. 1 (terbufos) was T-banded or furrow applied at labeled rates prior to planting corn. PPI herbicide treatments were applied prior to insecticide applications; PRE treatments were applied after the insecticide application either prior to or after seeding the corn. POE herbicide applications were made at 2 corn-growth stages, i.e., early post (EP) at the 2-3 leaf stage and late post (LP) at the 4-7 leaf stage. Plots were small plot with 3 replications in a randomized complete block design. In the PRE and PPI herbicide treatments, Antidote No. 1 was applied as a tankmix in both treatments. In the POE herbicide treatments, that antidote was applied as a tank mix with the herbicide at the EP and LP stages.

Velvetleaf (VELE) [2] = assay type: in vivo, Abutilon theophrasti
Corn [3] = tested on: Corn
Shattercane (SHCA) = assay type: in vivo
cotton (COTT) = assay: Multi-crop greenhouse test, COUNTER 15G and safener PPI, herbicide POE (Examples 62-64; Tables 61-63); assay type: in vivo; design: dose or concentration left out as unconfirmed; details: Gossypium hirsutum, Table 62, Biocide No. 1 8.96 Kg/Ha, antidote 4.48 Kg/Ha PPI where in label
Method: (§1) Tests according to this invention in various crops indicate widespread application of the invention. In Examples 62-66 below are described tests with a variety of herbicides contacted with COUNTER® 15G in the presence and absence of MON-7400 (Antidote No. 12); MON-13900 (No. 1); MON-4660 (No. 16) and flurazole (No. 16). Those tests were conducted according to Procedures IV or V described above and illustrated further in other foregoing examples. Plants used in all tests were, for crops (as abbreviated in parentheses); cotton (COTT); soybean (SOBE); CORN, grain sorghum (GRSO); wheat (WHEA) and RICE, and the weeds giant foxtail (GIFT) and velvetleaf (VELE). The data in the tables below represent averages of two replications.
(§2) In this test the crops and weeds were planted 1.3 cm deep in 13.7 cm X 27.7 cm pans containing Dupo silt loam soil. The test safeners were applied in acetone solution and COUNTER 15G as dry granules to soil cover layers and incorporated by shaking in a bag. Treated cover layers were placed on seeded pans which were transferred to greenhouse benches and subirrigated. Herbicide was applied POE six (6) days after PPI initiation and observations of plant injury made ten (10) days later; results are shown in Table 61. The herbicide used in this example was BEACON (No. 8).
(§3) The test procedure described in Example 62 was repeated using ACCENT® (Herbicide No. 7) as the herbicide; the biocide and safeners were the same.

RICE = assay: Multi-crop greenhouse test, herbicide POE (Examples 62-64; Tables 61-63); assay type: in vivo; design: dose or concentration left out as unconfirmed; details: Oryza sativa, Table 62, Biocide No. 1 8.96 Kg/Ha, antidote 4.48 Kg/Ha PPI where in label
Method: as §1, §2, §3

Giant foxtail (GIFT) = assay: as above; assay type: in vivo; design: dose or concentration left out as unconfirmed; details: Setaria faberi, Table 62, Biocide No. 1 8.96 Kg/Ha, antidote 4.48 Kg/Ha PPI where in label
Method: as §1, §2, §3

wheat (WHEA) = assay: as above; assay type: in vivo; design: dose or concentration left out as unconfirmed; details: Triticum aestivum, Table 62, Biocide No. 1 8.96 Kg/Ha, antidote 4.48 Kg/Ha PPI where in label
Method: as §1, §2, §3

Velvetleaf (VELE) [4] = assay: as above; assay type: in vivo; design: dose or concentration left out as unconfirmed; details: Abutilon theophrasti, Table 62, Biocide No. 1 8.96 Kg/Ha, antidote 4.48 Kg/Ha PPI where in label
Method: as §1, §2, §3

grain sorghum (GRSO) = assay: as above; assay type: in vivo; design: dose or concentration left out as unconfirmed; details: Biocide No. 1 8.96 Kg/Ha, antidote 4.48 Kg/Ha PPI where in label
Method: as §1, §2, §3

soybean (SOBE) = assay: as above; assay type: in vivo; design: dose or concentration left out as unconfirmed; details: Glycine max, Table 62, Biocide No. 1 8.96 Kg/Ha, antidote 4.48 Kg/Ha PPI where in label
Method: as §1, §2, §3

Corn [5] = assay: as above; assay type: in vivo; design: inhibition: dose or concentration left out as unconfirmed; details: Zea mays, Table 62, Biocide No. 1 8.96 Kg/Ha, antidote 4.48 Kg/Ha PPI where in label
Method: as §1, §2, §3

[6] = Herbicide No. 7 0.28 Kg/Ha POE alone, 13 days after planting
[7] = Herbicide No. 7 0.28 POE + Biocide No. 1 8.96 Kg/Ha PPI, 13 days after planting
[8] = Herbicide No. 7 alone, POE 5 DAP, observed 13 DAP
[9] = Table 14: no antidote, Herbicide No. 7 0.84 Kg/Ha POE and/or Biocide No. 2 8.96 Kg/Ha PPI, per label, 13 days after planting
[10] = Table 50, Herbicide No. 7 0.56 Kg/Ha POE, where applied Biocide No. 8 8.96 kg/Ha and antidote 4.48 Kg/Ha PPI, observed 9 days after POE
[11] = no antidote, […], 13 days after planting
[12] = Herb. No. 7 (ACCENT) 0.0044 Kg/Ha POE
[13] = Herb. No. 7 (ACCENT) 0.035 Kg/Ha POE
[14] = Herb. No. 7 (ACCENT) 0.28 Kg/Ha POE

## COc1cc(OC)nc(NC(=O)NS(=O)(=O)c2ncccc2C(=O)N(C)C)n1 [Herbicide No. 7, reference compound]
Corn [1]
  interaction with Insecticide No. 1 after POE herbicide: Significant increased growth reduction
Velvetleaf (VELE) [2]; [6]
  % Inhibition VELE: 60%
Velvetleaf (VELE) [2]; [7]
  % Inhibition VELE: 65%
Velvetleaf (VELE) [2]; [8]
  % Inhibition VELE: 70%
Velvetleaf (VELE) [2]; [9]
  % Inhibition VELE: 65%
Velvetleaf (VELE) [2]; [10]
  % Inhibition VELE: 80%
Velvetleaf (VELE) [2]; in vivo
  % Inhibition VELE: 60% and 75%
Velvetleaf (VELE) [2]; [11]
  % Inhibition VELE: 60%
Corn [3]; ACCENT alone, no insecticide, 0.28 to 0.84 kg/ha
  safety to corn: completely safe
Corn [3]; [6]
  % Inhibition Corn: 0%
Corn [3]; [7]
  % Inhibition Corn: 60%
Corn [3]; [8]
  % Inhibition Corn: 0%
Corn [3]; [9]
  % Inhibition Corn: 0%
Corn [3]; [10]
  % Inhibition Corn: 10%
Corn [3]; [11]
  % Inhibition Corn: 0%
Shattercane (SHCA); [6]
  % Inhibition SHCA: 70%
Shattercane (SHCA); [7]
  % Inhibition SHCA: 75%
Shattercane (SHCA); [8]
  % Inhibition SHCA: 75%
Shattercane (SHCA); [9]
  % Inhibition SHCA: 75%
Shattercane (SHCA); [10]
  % Inhibition SHCA: 75%
Shattercane (SHCA); in vivo
  % Inhibition SHCA: 75%
Shattercane (SHCA); [11]
  % Inhibition SHCA: 75%

## COc1cc(OC)nc(NC(=O)NS(=O)(=O)c2ncccc2C(=O)N(C)C)n1 [Herb. No. 7]
Cotton (COTT); [12]
  inhibition: 25%
Cotton (COTT); [13]
  inhibition: 40%
Cotton (COTT); [14]
  inhibition: 50%
RICE; [12]
  inhibition: 20%
RICE; [13]
  inhibition: 40%
RICE; [14]
  inhibition: 50%
Giant foxtail (GIFT); [12]
  inhibition: 65%
Giant foxtail (GIFT); [13]
  inhibition: 70%
Giant foxtail (GIFT); [14]
  inhibition: 75%
Wheat (WHEA); [12]
  inhibition: 35%
Wheat (WHEA); [13]
  inhibition: 45%
Wheat (WHEA); [14]
  inhibition: 60%
Velvetleaf (VELE) [4]; [12]
  inhibition: 40%
Velvetleaf (VELE) [4]; [13]
  inhibition: 60%
Velvetleaf (VELE) [4]; [14]
  inhibition: 65%
Grain sorghum (GRSO); Table 62, Herb. No. 7 (ACCENT) 0.0044 Kg/Ha POE
  inhibition: 60%
Grain sorghum (GRSO); Table 62, Herb. No. 7 (ACCENT) 0.035 Kg/Ha POE
  inhibition: 65%
Grain sorghum (GRSO); Table 62, Herb. No. 7 (ACCENT) 0.28 Kg/Ha POE
  inhibition: 75%
Soybean (SOBE); [12]
  inhibition: 10%
Soybean (SOBE); [13]
  inhibition: 20%
Soybean (SOBE); [14]
  inhibition: 40%
Corn [5]; [12]
  inhibition: 0%
Corn [5]; [13]
  inhibition: 0%
Corn [5]; [14]
  inhibition: 0%
